ChEMBL document CHEMBL1141675, “QSAR modeling of the interaction of flavonoids with GABA(A) receptor” (Eur J Med Chem, 2008)

Assay: Binding affinity to GABAA receptor
Parameters: unit not given here

Row | logKi | SMILES
1 | 0 | COc1c(O)cc2oc(-c3ccc(O)cc3)cc(=O)c2c1O
2 | -1.57 | O=c1cc(-c2ccccc2O)oc2ccc3ccccc3c12
3 | 0.976 | COc1ccccc1-c1cc(=O)c2cc(O)ccc2o1
4 | -0.036 | O=c1cc(-c2cccc(F)c2)oc2ccc(F)cc12
5 | -1.64 | O=c1cc(-c2cccc(Cl)c2)oc2ccc(Cl)cc12
6 | -0.745 | O=c1cc(-c2cccc([N+](=O)[O-])c2)oc2ccc(F)cc12
7 | 0 | O=c1cc(-c2ccccc2)oc2ccccc12
8 | -0.561 | O=c1cc(-c2ccccc2)oc2ccc([N+](=O)[O-])cc12
9 | -0.545 | O=c1cc(-c2cccc([N+](=O)[O-])c2)oc2ccccc12
10 | 1 | Cc1cccc(-c2cc(=O)c3ccccc3o2)c1
11 | 0.4 | O=c1cc(-c2cccc(O)c2)oc2ccc(F)cc12
12 | -1.12 | O=c1cc(-c2ccccc2O)oc2cc(O)cc(O)c12
13 | 0 | O=c1cc(-c2cccc(Br)c2)oc2ccc(O)cc12
14 | -0.212 | O=c1cc(-c2cccc(Cl)c2)oc2ccccc12
15 | -0.066 | COc1ccc2oc(-c3ccccc3)cc(=O)c2c1
16 | -0.424 | O=c1cc(-c2ccccc2F)oc2ccc(Br)cc12
17 | -0.384 | O=c1cc(-c2cccc(Br)c2)oc2ccccc12
18 | -1.47 | O=c1cc(-c2ccccc2O)oc2ccc(O)cc12
19 | -0.215 | COc1cccc(-c2cc(=O)c3cc(Br)ccc3o2)c1
20 | -0.699 | O=c1cc(-c2ccc([N+](=O)[O-])cc2)oc2ccc(Br)cc12
21 | -1.6 | O=c1cc(-c2cccc(Br)c2)oc2ccc([N+](=O)[O-])cc12
22 | -0.444 | COc1cccc(O)c1-c1cc(=O)c2c(O)c(OC)c(OC)c(OC)c2o1
23 | 0.55 | O=c1cc(-c2cccc(F)c2)oc2ccccc12
24 | -0.699 | COc1c(O)c(OC)c2oc(-c3ccccc3)cc(=O)c2c1O
25 | -0.682 | Cc1cccc(-c2cc(=O)c3cc(C)ccc3o2)c1
26 | -0.939 | O=c1cc(-c2ccc(F)cc2)oc2ccc(Br)cc12

Row | logKi | SMILES
27 | 0.097 | COc1ccc(-c2cc(=O)c3cc(Cl)ccc3o2)cc1
28 | 0.182 | COc1c(O)cc(O)c2c(=O)cc(-c3ccccc3)oc12
29 | 0 | COc1ccc2oc(-c3cccc(Br)c3)cc(=O)c2c1
30 | -0.627 | O=c1cc(-c2cccc(Br)c2)oc2ccc(F)cc12
31 | 0.602 | O=c1cc(-c2ccc(O)cc2)oc2cc(O)cc(O)c12
32 | 0.903 | O=c1cc(-c2ccccc2Cl)oc2cc(O)cc(O)c12
33 | -0.742 | O=c1cc(-c2ccc(F)cc2)oc2ccc(Cl)cc12
34 | 0.556 | O=c1cc(-c2ccc(F)cc2)oc2ccccc12
35 | -0.68 | O=c1cc(-c2ccccc2[N+](=O)[O-])oc2ccc(Br)cc12
36 | -2.21 | COc1c(O)c(OC)c2oc(-c3ccccc3O)cc(=O)c2c1O
37 | 1.97 | O=c1c(O)c(-c2ccc(O)cc2)oc2cc(O)cc(O)c12
38 | 0.398 | O=c1cc(-c2ccc(F)cc2)oc2ccc(F)cc12
39 | -0.051 | COc1c(O)cc2oc(-c3ccccc3)cc(=O)c2c1O
40 | -1.77 | O=c1cc(-c2cccc(Cl)c2)oc2ccc(Br)cc12
41 | -0.252 | O=c1cc(-c2ccccc2O)oc2cc(O)ccc12
42 | 0.623 | O=c1cc(-c2ccccc2)oc2cc(O)ccc12
43 | 0.422 | O=c1cc(-c2ccccc2)oc2ccc(O)cc12
44 | -1.6 | O=c1cc(-c2ccc(Br)cc2)oc2ccc([N+](=O)[O-])cc12
45 | -1.42 | COc1c(O)cc2oc(-c3ccccc3O)cc(=O)c2c1O
46 | -0.155 | O=c1cc(-c2ccccc2)oc2c(Br)c(O)c(Br)c(O)c12
47 | 0.544 | COc1ccc2oc(-c3ccccc3N)cc(=O)c2c1
48 | 2.3 | COc1cc2oc(-c3ccc(O)c(O)c3)cc(=O)c2c(O)c1OC
49 | 0.38 | COc1cccc(-c2cc(=O)c3ccccc3o2)c1
50 | -0.38 | O=c1cc(-c2ccccc2F)oc2ccc(Cl)cc12
51 | -0.812 | Cc1cccc(-c2cc(=O)c3cc(Br)ccc3o2)c1
52 | -2.25 | Cc1ccc2oc(-c3cccc([N+](=O)[O-])c3)cc(=O)c2c1

Row | logKi | SMILES
53 | 0.477 | O=c1cc(-c2ccccc2)oc2cc(O)cc(O)c12
54 | 0 | O=c1cc(-c2ccccc2)oc2c(I)c(O)c(I)c(O)c12
55 | 1.7 | COc1cc(O)c2c(=O)cc(-c3ccccc3)oc2c1
56 | -2.1 | O=c1cc(-c2cccc([N+](=O)[O-])c2)oc2ccc(Cl)cc12
57 | 0.653 | O=c1cc(-c2ccccc2)oc2ccc(F)cc12
58 | -0.07 | O=c1cc(-c2cccc(O)c2)oc2ccc(Cl)cc12
59 | -0.072 | COc1cccc(-c2cc(=O)c3cc(Cl)ccc3o2)c1
60 | -0.22 | O=c1cc(-c2cccc(O)c2)oc2ccc(Br)cc12
61 | 1.51 | COc1ccccc1-c1cc(=O)c2ccccc2o1
62 | 1.36 | COc1cc2oc(-c3ccc(O)cc3)cc(=O)c2c(O)c1OC
63 | -1.38 | O=c1cc(-c2cccc(F)c2)oc2ccc(Br)cc12
64 | -0.678 | O=c1cc(-c2ccccc2O)oc2ccccc12
65 | -1.16 | O=c1cc(-c2ccccc2)oc2ccc(Br)cc12
66 | -1.89 | Cc1ccc2oc(-c3cccc(Br)c3)cc(=O)c2c1
67 | 0.322 | COc1ccc(-c2cc(=O)c3cc(Br)ccc3o2)cc1
68 | -0.701 | O=c1cc(-c2cccc(Cl)c2)oc2ccc(F)cc12
69 | 0.903 | O=c1cc(-c2ccccc2F)oc2cc(O)cc(O)c12
70 | -1.64 | O=c1cc(-c2cccc(Br)c2)oc2ccc(Cl)cc12
71 | -1.72 | O=c1cc(-c2cccc(Br)c2)oc2ccc(Br)cc12
72 | -3 | O=c1cc(-c2cccc([N+](=O)[O-])c2)oc2ccc(Br)cc12
73 | -0.785 | O=c1cc(-c2ccccc2)oc2ccc(Cl)cc12
74 | 0.747 | O=c1cc(-c2ccccc2)oc2cc(O)c(O)c(O)c12
75 | -0.932 | O=c1cc(-c2cccc(F)c2)oc2ccc(Cl)cc12
76 | 0.398 | COc1cccc(-c2cc(=O)c3cc(F)ccc3o2)c1

Row | SMILES | logKi
77 | Cc1ccc2oc(-c3ccccc3)cc(=O)c2c1 | -0.903
78 | O=c1cc(-c2cccc([N+](=O)[O-])c2)oc2ccc([N+](=O)[O-])cc12 | -1.58
